Measured values reported in ChEMBL document CHEMBL1201862, “PubChem BioAssay data set” (2004).
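Tested at 5 concentrations; 48 h exposure; 96-well plates; endpoints linearly interpolated, else capped at highest concentration. At the GI50, growth is halved.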 The source made the active and inactive calls. Cut-off read from the data, not from the text of the source: active = GI50 up to about 1.1 µM and inactive = higher.

What was measured:
Assay in all cases: growth of human tumour cells (NCI), 48 h
IGROV-1 = test system: IGROV-1
ACHN = test system: ACHN
NCI-H522 = test system: NCI-H522
MDA-MB-231 = test system: MDA-MB-231
SNB-19 = test system: SNB-19
SF-295 = test system: SF-295
UACC-62 = test system: UACC-62
LOX IMVI = test system: LOX IMVI
HL-60 = test system: HL-60
MDA-N = test system: MDA-N
U-251 = test system: U-251
SW-620 = test system: SW-620
SR = test system: SR
RPMI-8226 = test system: RPMI-8226
MCF7 = test system: MCF7
SN12C = test system: SN12C
SK-OV-3 = test system: SK-OV-3
PC-3 = test system: PC-3
A498 = test system: A498
COLO 205 = test system: COLO 205

CCCC/C=C1/CCC(CN(C)C)C1=O (stereo not given)
GI50 (IGROV-1): 3.98 µM (inactive) | GI50 (ACHN): 2.05 µM (inactive) | GI50 (NCI-H522): 0.656 µM (active) | GI50 (MDA-MB-231): 2.82 µM (inactive) | GI50 (SNB-19): 5.97 µM (inactive) | GI50 (SF-295): 6.71 µM (inactive) | GI50 (UACC-62): 2.09 µM (inactive) | GI50 (LOX IMVI): 1.39 µM (inactive) | GI50 (HL-60): 0.885 µM (active) | GI50 (MDA-N): 2.42 µM (inactive) | GI50 (U-251): 1.97 µM (inactive) | GI50 (SW-620): 1.14 µM (inactive) | GI50 (SR): 0.456 µM (active) | GI50 (RPMI-8226): 0.0968 µM (active) | GI50 (MCF7): 0.525 µM (active) | GI50 (SN12C): 1.87 µM (inactive) | GI50 (SK-OV-3): 12.9 µM (inactive) | GI50 (PC-3): 14.1 µM (inactive) | GI50 (A498): 8.77 µM (inactive) | GI50 (COLO 205): 1.42 µM (inactive)

CC(=O)NC1CONC1=O (stereo not given)
GI50 (IGROV-1): > 100 µM (inactive) | GI50 (ACHN): > 100 µM (inactive) | GI50 (NCI-H522): > 100 µM (inactive) | GI50 (MDA-MB-231): > 100 µM (inactive) | GI50 (SNB-19): > 100 µM (inactive) | GI50 (SF-295): > 100 µM (inactive) | GI50 (UACC-62): > 100 µM (inactive) | GI50 (LOX IMVI): > 100 µM (inactive) | GI50 (HL-60): > 100 µM (inactive) | GI50 (MDA-N): > 100 µM (inactive) | GI50 (U-251): > 100 µM (inactive) | GI50 (SW-620): > 100 µM (inactive) | GI50 (SR): > 100 µM (inactive) | GI50 (RPMI-8226): > 100 µM (inactive) | GI50 (MCF7): > 100 µM (inactive) | GI50 (SN12C): > 100 µM (inactive) | GI50 (SK-OV-3): > 100 µM (inactive) | GI50 (PC-3): > 100 µM (inactive) | GI50 (A498): > 100 µM (inactive) | GI50 (COLO 205): > 100 µM (inactive)

COc1cc(C2c3cc4c(cc3OC3(OC)COC(=O)C23)OCO4)cc(OC)c1OC (stereo not given)
GI50 (IGROV-1): 0.425 µM (active) | GI50 (ACHN): 0.618 µM (active) | GI50 (NCI-H522): 0.18 µM (active) | GI50 (MDA-MB-231): 0.29 µM (active) | GI50 (SNB-19): 1.64 µM (inactive) | GI50 (SF-295): 0.173 µM (active) | GI50 (UACC-62): 0.311 µM (active) | GI50 (LOX IMVI): 0.188 µM (active) | GI50 (HL-60): 0.263 µM (active) | GI50 (MDA-N): 0.075 µM (active) | GI50 (U-251): 0.377 µM (active) | GI50 (SW-620): 0.286 µM (active) | GI50 (SR): 0.272 µM (active) | GI50 (RPMI-8226): 0.284 µM (active) | GI50 (MCF7): 0.292 µM (active) | GI50 (SN12C): 0.478 µM (active) | GI50 (SK-OV-3): 0.348 µM (active) | GI50 (PC-3): 0.285 µM (active) | GI50 (A498): 0.281 µM (active) | GI50 (COLO 205): 0.251 µM (active)

CC1(C)C(=O)N(O)C(C)(C)N1O
GI50 (IGROV-1): > 10 µM (inactive) | GI50 (ACHN): > 10 µM (inactive) | GI50 (NCI-H522): > 10 µM (inactive) | GI50 (MDA-MB-231): > 10 µM (inactive) | GI50 (SNB-19): > 10 µM (inactive) | GI50 (SF-295): > 10 µM (inactive) | GI50 (UACC-62): > 10 µM (inactive) | GI50 (LOX IMVI): > 10 µM (inactive) | GI50 (HL-60): > 10 µM (inactive) | GI50 (MDA-N): > 10 µM (inactive) | GI50 (U-251): > 10 µM (inactive) | GI50 (SW-620): > 10 µM (inactive) | GI50 (SR): > 10 µM (inactive) | GI50 (RPMI-8226): > 10 µM (inactive) | GI50 (MCF7): > 10 µM (inactive) | GI50 (SN12C): > 10 µM (inactive) | GI50 (SK-OV-3): > 10 µM (inactive) | GI50 (PC-3): > 10 µM (inactive) | GI50 (A498): > 10 µM (inactive) | GI50 (COLO 205): > 10 µM (inactive)

CCOP(C)(=O)C(N)Cc1ccc(OC)c(OC)c1 (stereo not given)
GI50 (IGROV-1): > 100 µM (inactive) | GI50 (ACHN): > 100 µM (inactive) | GI50 (NCI-H522): > 100 µM (inactive) | GI50 (MDA-MB-231): > 100 µM (inactive) | GI50 (SNB-19): > 100 µM (inactive) | GI50 (SF-295): > 100 µM (inactive) | GI50 (UACC-62): > 100 µM (inactive) | GI50 (LOX IMVI): > 100 µM (inactive) | GI50 (HL-60): > 100 µM (inactive) | GI50 (MDA-N): > 100 µM (inactive) | GI50 (U-251): > 100 µM (inactive) | GI50 (SW-620): > 100 µM (inactive) | GI50 (SR): > 100 µM (inactive) | GI50 (RPMI-8226): > 100 µM (inactive) | GI50 (MCF7): > 100 µM (inactive) | GI50 (SN12C): > 100 µM (inactive) | GI50 (SK-OV-3): > 100 µM (inactive) | GI50 (PC-3): > 100 µM (inactive) | GI50 (A498): > 100 µM (inactive) | GI50 (COLO 205): > 100 µM (inactive)

Cc1nc(O)nc2nc3ccc(Cl)cc3c(N(CCO)CCO)c12
GI50 (IGROV-1): > 100 µM (inactive) | GI50 (ACHN): > 100 µM (inactive) | GI50 (NCI-H522): 24 µM (inactive) | GI50 (MDA-MB-231): 39 µM (inactive) | GI50 (SNB-19): > 100 µM (inactive) | GI50 (SF-295): > 100 µM (inactive) | GI50 (UACC-62): > 100 µM (inactive) | GI50 (LOX IMVI): > 100 µM (inactive) | GI50 (HL-60): > 100 µM (inactive) | GI50 (MDA-N): > 100 µM (inactive) | GI50 (U-251): > 100 µM (inactive) | GI50 (SW-620): > 100 µM (inactive) | GI50 (SR): > 100 µM (inactive) | GI50 (RPMI-8226): 52.6 µM (inactive) | GI50 (MCF7): > 100 µM (inactive) | GI50 (SN12C): > 100 µM (inactive) | GI50 (SK-OV-3): > 100 µM (inactive) | GI50 (PC-3): > 100 µM (inactive) | GI50 (A498): > 100 µM (inactive) | GI50 (COLO 205): > 100 µM (inactive)
